pEC50, pIC50: −log10 of the molar value. Like-named read-outs stand apart in the source and are kept apart here.
Tests used:
[1] = system: HT-29 cells; experiment: HT-29 necroptosis assay; type: cell-based, human; settings: TNF-α + AT-406 + zVAD-FMK, 16–20 h, read-out: HT29-Necroptosis (IC50) (converted)
Procedure: The efficacies of RIP1 inhibitors were tested in vitro using HT-29 cells and L929 cells in a necroptosis assay. For HT-29 necroptosis assay, frozen HT-29 cells were thawed and diluted to 1.5 × 10^5 cells ml^−1 in McCoy’s 5 A Medium (16600108, Invitrogen) supplemented with 10% FBS, 100 U ml^−1 penicillin, and 100 μg ml^−1 streptomycin. A 20 μl aliquot of cell suspension was added to each well of a 384-assay plate and the cell culture plates were incubated for 16–20 h at 37 °C, 5% CO2. After overnight incubation, 2.5 μl of inhibitor dissolved in culture medium was added to each well of the cell plates, and then each well was treated with 2.5 μl of necroptosis inducer containing […], AT-406, and zVAD-FMK solution at final concentrations of 200 ng ml^−1, 10 μM, and 200 μM, respectively. Lidded plates were incubated for 16–20 h at 37 °C, 5% CO2. The next day, the supernatant of culture medium in each well was evaluated with CytoTox 96 Non-Radioactive Cytotoxicity Assay (G1780, Promega) according to the manufacturer’s instructions. The absorbance of the test plate was measured by 2103 EnVision Multilabel plate reader.
A, no necroptosis inducer; B, necroptosis inducer; X, necroptosis inducer plus test inhibitor. IC50 values were calculated with XLfit software (IDBS) using a four-parameter logistic curve.

[2] = system: CD11b+/Ly-6G- monocytes in mouse whole blood; experiment: In vitro whole blood necroptosis assay (monocyte cell death); type: cell-based; settings: for restoration of monocyte number/fraction after TSZ stimulation: FACS
[3] = target: T1, human RIPK1 (Homo sapiens, UniProt Q13546); experiment: CETSA (Tagg curves and ITDRF) for human RIPK1 with HT-29 cells; type: cell-based; settings: compound 30 min, 47 °C for 8 min denature, independent runs reported, read-out: human_ITDRF-CETSA (EC50)
T1 construct: ITDRF values of half-maximal stabilization of endogenous RIPK1; endogenous in cells; host or cells: HT-29
T1 sequence (Q13546 1-671): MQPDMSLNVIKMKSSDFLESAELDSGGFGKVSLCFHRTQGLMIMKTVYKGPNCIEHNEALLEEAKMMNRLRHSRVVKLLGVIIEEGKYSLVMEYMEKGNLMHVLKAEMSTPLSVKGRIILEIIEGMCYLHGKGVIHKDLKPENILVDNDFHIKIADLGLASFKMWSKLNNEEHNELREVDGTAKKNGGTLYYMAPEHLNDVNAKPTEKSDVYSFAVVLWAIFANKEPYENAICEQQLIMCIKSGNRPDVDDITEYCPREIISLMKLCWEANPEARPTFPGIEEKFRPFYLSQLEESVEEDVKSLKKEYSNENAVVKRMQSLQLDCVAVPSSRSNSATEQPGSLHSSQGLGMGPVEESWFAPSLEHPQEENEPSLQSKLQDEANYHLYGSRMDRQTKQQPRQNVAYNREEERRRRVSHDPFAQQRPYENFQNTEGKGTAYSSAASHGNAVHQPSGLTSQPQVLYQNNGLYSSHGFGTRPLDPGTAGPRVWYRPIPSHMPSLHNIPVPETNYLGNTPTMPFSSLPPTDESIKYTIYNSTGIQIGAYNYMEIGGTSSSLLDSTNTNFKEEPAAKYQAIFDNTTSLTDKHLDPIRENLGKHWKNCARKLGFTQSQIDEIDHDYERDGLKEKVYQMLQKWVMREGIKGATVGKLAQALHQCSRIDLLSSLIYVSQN
Procedure: HT-29 and L929 cells were harvested and suspended with culture media containing 10% FBS to a cell density of 2 × 10^6 cells ml^−1. Mouse peripheral blood was collected from C57BL/6 J (female, 10-week-old, Charles River Japan) and PBMCs were isolated by density centrifugation over Lympholyte®-Mammal Cell Separation Media, Mammalian (CL5110, Cedarlane Laboratories) according to manual instructions. Briefly, approximately 500 μl of blood was carefully overlaid on 250 μl of the separation media so as not to disturb the layer. The samples were immediately spun at 800 g for 20 min at room temperature. After centrifugation, the buffy coat containing the PBMCs was collected with almost 350 μl of plasma to a cell density of approximately 1 × 10^6 cells ml^−1. […]
For the in-cell thermal aggregation curve experiments, the compound solution was mixed with 9-fold volume of the suspension of cells at approximately 2 × 10^6 cells ml^−1 and the cells were incubated for 30 min at 37 °C, 5% CO2. […] Both whole and supernatant samples were analysed by sodium dodecyl sulfate polyacrylamide gel electrophoresis (SDS-PAGE) followed by Western blotting.
For the ITDRF in cell experiments, compounds were serially diluted to generate dose response curves. […] The heat-treated samples were treated as for the sample preparation and analysed with Western blotting following the procedure described above. […]

[4] = system: phospho (Ser-345)-MLKL; experiment: Mouse phospho (Ser-345)-MLKL ELISA assay in L929 cells; type: cell-based; settings: read-out: L929-pMLKL (IC50)
[5] = system: L929 cells; experiment: L929 necroptosis assay; type: cell-based; settings: mouse TNFα + Z-VAD-FMK, 4 h
[6] = system: MLKL phosphorylation (p-MLKL); experiment: Immunoblot of MLKL phosphorylation in isolated CD11b+Ly-6G- monocytes; type: cell-based, mouse; settings: isolated CD11b+Ly-6G- monocyte cells
Procedure: reaction. […] An excitation filter of
Inhibition rate was ex pressed as percent
(%) inhibition of internal assay controls. Percentage inhibition was calculated from the signal […]
For concentration response
(IDBS) using a four-parameter logistic curve. The value of Ki (the inhibitory constant) was […]
In vitro and ex vivo whole blood necroptosis assay. For the isolation of mouse monoc yte […]
density centrifugation over Ficoll-Paque Plus (GE Healthcare). Then, CD11b+/ Ly -6G- […]
manufacturer ’s recommendation. […]
treatment (no stimulation, TSZ stimulation with DMSO control, and TSZ stimulation with […] Nec- 1). As a result, the monocyte and neutrophil fraction was decreased, in which fractions onl y the monocyte fraction was restored by the treatment of RIPK1 inhibitor. (b) Monocyte cell number was counted as CD11b+/Ly-6G- population by FACS staining for further confirmation, since CD11b+ fraction contains Ly-6G+ neutrophil population. The left-hand graph indicates the CD11b+Ly-6G- monocyt e population which was calculated from flow c ytometr y analysis. Representative plots are indicated in the right- hand panels in which CD11b+/ Ly-6G- population are shown as blue dots. Significant reduction in monocyte […]
25 treatment. (c) C D 1 1 b + Ly -6G- monoc yte cells were isolated as des cribed in Supplementary Fi g. 4b and anal ysed b y i mmunoblotting using the indicated antibodies. […]

Row | pIC50 [4] | SMILES | IC50 [1] [nM] | restoration of monocyte number/fraction after TSZ stimulation [2] | pEC50 [3] | IC50 ([1]; Homo sapiens) [nM] | pIC50 [5] | pIC50 ([2]; TNF-α + AT-406 + zVAD-FMK, 16–20 h, monocyte population by FACS) | inhibition of TSZ-induced MLKL phosphorylation (p-MLKL) [6]
1 |  | CN1C(=O)[C@@H](N2CCc3c(nn(Cc4ccccc4)c3Cl)C2=O)COc2ccccc21 [Compound 18, (3S)-3-(2-benzyl-3-chloro-7-oxo-2,4,5,7-tetrahydro-6H-pyrazolo[3,4-c]pyridin-6-yl)-5-methyl-2,3-dihydro-1,5-benzoxazepin-4(5H)-one] | 1.5 |  |  |  |  |  | 
2 |  | CN1C(=O)C(Cc2c[nH]c3ccccc23)NC1=S (centres unmarked) [Nec-1, Necrostatin-1, reference compound] |  | restored | 5.96 | 610 |  |  | 
3 | 7.80 | CNC(=O)c1ccc2c(c1)OC[C@H](N1CCc3c(nn(Cc4ccccc4)c3Cl)C1=O)C(=O)N2C [Compound 23] |  |  |  | 1.8 | 7.82 |  | 
4 |  | Nc1ncnc2occ(-c3ccc(NC(=O)Nc4cc(C(F)(F)F)ccc4F)cc3)c12 [GSK-compound 27, reference compound] |  |  |  | 300 |  |  | 
5 | 7.18 | CN1C(=O)[C@@H](N2CCc3cn(Cc4ccccc4F)nc3C2=O)COc2cc(C#N)ccc21 [Compound 25] |  | rescued |  | 8.2 | 6.85 | 5.92 | completely inhibited
